Values joined by “and” are separate entries in the source; they are usually repeats but may differ in a detail not shown here. Identical values can stand only once.

Assay [1] deals with HCV ET replicon cells (Huh-7, HCV Con1-ET construct). In words: Replicon assay: inhibition of Hepatitis C virus replication by supernatants from compound-stimulated human PBMC. It is filed as cell-based. To be noted: Huh-7 HCV ET replicon, luciferase, 48 h incubation, read-out: mean EC50 (compound concentration giving a PBMC supernatant inhibiting HCV replication by 50%). Here is the method: Inhibition of Hepatitis C virus Replication by Supernatants from Compound-Stimulated Human Peripheral Blood Mononuclear Cells (PBMC).
An assay was established to measure the antiviral activity in supernatants from human PBMC which had been previously stimulated with compounds.
Activity assays were conducted using an Huh-7 cell line stably-transfected with a dicistronic replicon, comprising the HCV Con1-ET construct (Pietschmann et al., 2002 J. Virol. 2002 76(8):4008-21) and the firefly (Photinus pyralis) luciferase gene, obtained from ReBLikon GmbH, Germany.
1.5×10^4 HCV ET replicon cells per well were grown in 96-well plates overnight in 90 microlitres of cell culture medium. Ten microlitres of three-fold dilutions of PBMC supernatants generated above (stimulation of human donor blood-derived peripheral blood mononuclear cells (PBMC) with test compounds) were added to the ET cells. Following a 48-hour incubation, assay medium was removed and luciferase activity measured in the cell monolayers using the Steadylite assay system (Perkin Elmer). EC50 values were calculated as the compound concentration giving a PBMC supernatant which was able to inhibit HCV replication by 50% compared with a supernatant from unstimulated PBMC cultures.

In assay [2] the test system is Ovalbumin (OVA)-induced acute pulmonary inflammation. In words: Ovalbumin-induced acute pulmonary inflammation model. It is filed as in vivo, BALB/c mice. The conditions noted are these: BAL on day 28. Here is the method: Inhibition of Ovalbumin (OVA)—Induced Acute Pulmonary Inflammation. Female BALB/c mice (18-20 g) were inoculated on days 0 and 14, with 10 μg OVA adsorbed to 2 mg aluminium hydroxide in a volume of 0.2 ml phosphate buffered saline (PBS) via the intra-peritoneal route. On days 24-26, mice were intra-nasally challenged with 50 μl of either saline or OVA (formulated as above) under general anaesthesia. […] Doses were given once daily on days 23 to 27 with the initial dose 24 h prior to the first challenge. On the days of challenge, animals were dosed with compound or vehicle one hour after challenge. Animals therefore received a total of 5 doses. Dexamethasone was used as a positive control dosed at 10 mg/kg orally in the same vehicle once daily on days 24 to 27 with the initial dose 1 h prior to the first challenge. Animals therefore received a total of 4 doses. Animals were killed on day 28 (48 hours post last saline or OVA challenge) and bronchoalveolar lavage (BAL) was performed with 5×1 ml (0.1% bovine serum albumin, 10 mM EDTA in PBS) and pooled. Numbers of lymphocytes, macrophages, eosinophils and neutrophils in BAL were identified by light scatter flow cytometry and quantified.

Setting [3] is: 5 mg/kg orally once daily days 23 to 27, compared with saline treated controls.
The mark [4] stands for this setting: positive control, 10 mg/kg orally once daily days 24 to 27, 10 mg/kg.

As to `CCCCOc1nc(N)c2[nH]c(=O)n(CC3CCOCC3)c2n1` [Example 1, 6-Amino-2-butoxy-9-(tetrahydro-2H-pyran-4-ylmethyl)-7,9-dihydro-8H-purin-8-one], the EC50 in assay [1] stood at 43 nM.
In the case of `CCCCNc1nc(N)c2[nH]c(=O)n(CC3CCOCC3)c2n1` [Example 4, 6-Amino-2-butylamino-9-(tetrahydro-2H-pyran-4-ylmethyl)-7,9-dihydro-8H-purin-8-one], in assay [2] (setting [3]), the “reduction of eosinophil counts in BAL” value stood at 72%, the “reduction of lymphocyte counts in BAL” value was found to be 66% and the “reduction of neutrophil counts in BAL” value turned out to be 50%. Moreover, the EC50 in assay [1] came to 1050 nM.
With `CCCCOc1nc(N)c2[nH]c(=O)n(CC3CCCOC3)c2n1` (centres unmarked) [Example 12, 6-Amino-2-butoxy-9-(tetrahydro-2H-pyran-3-ylmethyl)-7,9-dihydro-8H-purin-8-one], in assay [2] (setting [3]), the “reduction of eosinophil counts in BAL” value worked out at 67%, the “reduction of lymphocyte counts in BAL” value is recorded as 68% and the “reduction of neutrophil counts in BAL” value is 58%.
As to `C[C@@H]1C[C@H]2[C@@H]3CCC4=CC(=O)C=C[C@]4(C)[C@@]3(F)[C@@H](O)C[C@]2(C)[C@@]1(O)C(=O)CO` [dexamethasone, Dexamethasone, reference compound], in assay [2] (setting [4]), the “reduction of eosinophil counts in BAL” value is 92% and 86%; the “reduction of lymphocyte counts in BAL” value is 87% and 86%; the “reduction of neutrophil counts in BAL” value was 68% and 65%.
